Laboratory results reported in US6949250B2, “Selective algaecides for control of cyanochloronta” (The United States of America as represented by the …, priority 2002, dated 2005).
In brackets after ≈: the same amount, converted by molar mass. Like-named read-outs stand apart in the source and are kept apart here.

Assays:
Oscillatoria perornata = assay: Rapid bioassay screening for selective algicides (LOEC, LCIC); assay type: cell-based; settings: for MIC: read-out: LCIC (lowest-complete-inhibition concentration), Oscillatoria perornata; for minimal effective concentration: read-out: LOEC (lowest-observed-effect concentration), Oscillatoria perornata
Text: (§1) These were screened in the laboratory by the method of Schrader et al. (K. K. Schrader, M. Q. de Regt, C. S. Tucker and S. O. Duke, A rapid bioassay for selective algicides. Weed Technol. (1997), vol. 11, pp. 767-774) for algicidal activity.
(§2) The anthraquinone derivatives were screened for selective toxicity towards Oscillatoria perornata, previously isolated from a Mississippi catfish pond, using the method of Schrader et al. (1997). The green alga Selenastrum capricornutum (obtained from the United States Environmental Protection Agency, Corvallis, Oreg.) was used as the representative green algal species in the bioassay since it is a common species found in southeastern United States catfish ponds. Absorbance readings were graphed, and graphs were used to determine the LOEC (lowest-observed-effect concentration) and the LCIC (lowest-complete-inhibition concentration) for each anthraquinone analog. In addition, a 96-hour 50% inhibition concentration (IC50) was determined for DNA1-19-1 and DNA2-59-1 by using the method described by Schrader et al. (1998b). Stock solutions of DNA1-19-1 and DNA2-59-1 were prepared so that final concentrations screened for 96-hour IC50 determinations were as follows: 1) 0, 0.01, 0.033, 0.1, 0.333, 1.0, 3.3, and 10.0 μM DNA1-19-1 for both O. perornata and S. capricornutum; 2) 0, 0.003, 0.01, 0.033, 0.1, 0.333, 1.0, and 3.333 μM DNA2-59-1 for O. perornata; and 3) 0, 0.1, 0.333, 1.0, 3.333, 10.0, 33.333, and 100.0 μM DNA2-59-1 for S. capricornutum. Estimation of the IC50 was determined by plotting 96-hour absorbance readings against logarithmic dilution values of the anthraquinone analogs. The screening results of the anthraquinone derivatives and commercially available analogs of anthraquinone are presented in Tables 1 and 2, respectively. The results in Table 1 reveal that DNA1-19-1 and DNA2-59-1 are the most promising analogs since these two compounds had the lowest LOEC and LCIC values for O. perornata (10 nM and 100 nM, respectively). Based upon IC50 results in Table 3, DNA2-59-1 appears to be more toxic and selective towards O. perornata than DNA1-19-1.
as §2, with “(A rapid bioassay for selective algicides. Weed Technol. (1997), vol. 11, pp. 767-774).” for “(1997).”, “(K. K. Schradar, M. Q. de Regt, P. D. Tidwell, C. S. Tucker and S. O. Duke, Selective growth inhibition of the musty-odor producing cyanobacterium Oscillatoria cf. chalybea by natural compounds. Bull. Environ. Contam. Toxicol. (1998a), vol.60, pp. 651-658).” for “(1998b).”, “The screening results of the anthraquinone derivatives and commercially available analogs of anthraquinone are presented in Tables 1 and 2, respectively. The results in Table 1 reveal that DNA1-19-1 and DNA2-59-1 are the most promising analogs since these two compounds had the lowest LOEC and LCIC values for O. perornata (10 nM and 100 nM, respectively). Based upon IC50 results in Table 3, DNA2-59-1 appears to be more toxic and selective towards O. perornata than DNA1-19-1.” left out

[1] = test system: Selenastrum capricornutum; assay: as above; assay type: cell-based; settings: for MIC / minimal effective concentration: Selenastrum capricornutum; for MIC: read-out: LCIC (lowest-complete-inhibition concentration), Selenastrum capricornutum; for minimal effective concentration: read-out: LOEC (lowest-observed-effect concentration), Selenastrum capricornutum
Text: as §1, §2
as §2, with “(A rapid bioassay for selective algicides. Weed Technol. (1997), vol. 11, pp. 767-774).” for “(1997).”, “(K. K. Schradar, M. Q. de Regt, P. D. Tidwell, C. S. Tucker and S. O. Duke, Selective growth inhibition of the musty-odor producing cyanobacterium Oscillatoria cf. chalybea by natural compounds. Bull. Environ. Contam. Toxicol. (1998a), vol.60, pp. 651-658).” for “(1998b).”, “The screening results of the anthraquinone derivatives and commercially available analogs of anthraquinone are presented in Tables 1 and 2, respectively. The results in Table 1 reveal that DNA1-19-1 and DNA2-59-1 are the most promising analogs since these two compounds had the lowest LOEC and LCIC values for O. perornata (10 nM and 100 nM, respectively). Based upon IC50 results in Table 3, DNA2-59-1 appears to be more toxic and selective towards O. perornata than DNA1-19-1.” left out

[2] = Planktothrix perornata, rapid screening

Compound	MIC (Oscillatoria perornata; [2])	MIC ([1]; rapid screening)	LCIC (lowest-complete-inhibition concentration), Oscillatoria perornata (Oscillatoria perornata; rapid screening)	LCIC (lowest-complete-inhibition concentration), Selenastrum capricornutum ([1]; rapid screening)	LOEC (lowest-observed-effect concentration), Selenastrum capricornutum ([1]; rapid screening)	minimal effective concentration (Oscillatoria perornata; rapid screening)	further results
O=C1c2cccc(S(=O)(=O)O)c2C(=O)c2cccc(S(=O)(=O)O)c21 [anthraquinone-1,5-disulfonic acid, reference compound]	> 1000 µM	> 1000 µM	–	–	–	–	–
O=C1c2ccccc2C(=O)c2cc(OCCOCCOCCO)ccc21 [DNA2-99-2, 2-[2-[2-(2-Hydroxyethoxy)ethoxy]ethoxy]-9,10-anthraquinone]	10 µM (≈ 3.56 µg/mL)	> 100 µM	–	–	–	–	minimal effective concentration (Oscillatoria perornata; [2]): 10 µM; minimal effective concentration ([1]; rapid screening): > 100 µM
CCCNCc1ccc2c(c1)C(=O)c1ccccc1C2=O.O=P(O)(O)O [DNA3-31-1, 2-[Methylamino-N-(propyl)]-9,10-anthraquinone monophosphate]	–	–	1,000 nM	10,000 nM	10,000 nM	–	LOEC (lowest-observed-effect concentration), Oscillatoria perornata (Oscillatoria perornata; rapid screening): 1,000 nM
CCN(CC)Cc1ccc2c(c1)C(=O)c1ccccc1C2=O.O=P(O)(O)O [DNA2-51-1, 2-[Methylamino-N,N-(diethyl)]-9,10-anthraquinone monophosphate]	–	–	–	100,000 nM	10,000 nM	0.1 µM	MIC (Oscillatoria perornata; rapid screening): 0.1 µM
O=C1c2ccccc2C(=O)c2cc(CNC3CC3)ccc21.O=P(O)(O)O [DNA3-35-1, 2-[Methylamino-N-(cyclopropyl)]-9,10-anthraquinone monophosphate]	–	–	1,000 nM	100,000 nM	10,000 nM	–	LOEC (lowest-observed-effect concentration), Oscillatoria perornata (Oscillatoria perornata; rapid screening): 1,000 nM
CCCCN(CCCC)Cc1ccc2c(c1)C(=O)c1ccccc1C2=O.O=P(O)(O)O [DNA2-57-1, 2-[Methylamino-N,N-(dibutyl)]-9,10-anthraquinone monophosphate]	–	–	1,000 nM	1e+06 nM	100,000 nM	–	LOEC (lowest-observed-effect concentration), Oscillatoria perornata (Oscillatoria perornata; rapid screening): 1,000 nM
O=C1c2ccccc2C(=O)c2cc(CO)ccc21 [2-hydroxymethyl-anthraquinone, reference compound]	–	–	–	–	–	–	MIC (Oscillatoria perornata; Planktothrix perornata): 10 µM (≈ 2.38 µg/mL); MIC [1]: 100 µM (≈ 23.8 µg/mL)
O=C1c2ccccc2C(=O)c2c(OCCOCCOCCOCCOCCO)cccc21 [DNA3-49-1, 1-[2-[2-[2-[2-(2-Hydroxyethoxy)ethoxy]ethoxy]ethoxy]ethoxy]-9,10-anthraquinone]	10 µM (≈ 4.44 µg/mL)	> 100 µM	–	–	–	–	minimal effective concentration (Oscillatoria perornata; [2]): 1 µM; minimal effective concentration ([1]; rapid screening): > 100 µM
COCCOCCOc1cccc2c1C(=O)c1ccccc1C2=O [DNA3-7-1, 1-[2-(2-Methoxyethoxy)ethoxy]-9,10-anthraquinone]	100 µM (≈ 32.6 µg/mL)	> 100 µM	–	–	–	–	minimal effective concentration (Oscillatoria perornata; [2]): 10 µM; minimal effective concentration ([1]; rapid screening): > 100 µM
Nc1cccc2c1C(=O)c1ccccc1C2=O [1-aminoanthraquinone, reference compound]	100 µM (≈ 22.3 µg/mL)	> 100 µM	–	–	–	–	–
O=C1c2cccc(O)c2C(=O)c2c(O)cccc21 [1,8-dihydroxyanthraquinone, reference compound]	100 µM (≈ 24 µg/mL)	> 100 µM	–	–	–	–	–
CN(C)CCCNCc1ccc2c(c1)C(=O)c1ccccc1C2=O.O=P(O)(O)O.O=P(O)(O)O [DNA2-23-1, 2-[Methylamino-N-(propyl-3′-N,N-dimethylamino)]-9,10-anthraquinone diphosphate]	–	–	1,000 nM	10,000 nM	10,000 nM	0.1 µM	–
CNCc1ccc2c(c1)C(=O)c1ccccc1C2=O.O=P(O)(O)O [DNA3-19-1, 2-[Methylamino-N-(methyl)]-9,10-anthraquinone monophosphate]	–	–	1,000 nM	10,000 nM	10,000 nM	–	LOEC (lowest-observed-effect concentration), Oscillatoria perornata (Oscillatoria perornata; rapid screening): 1,000 nM
CCN(CC)CCCNCc1ccc2c(c1)C(=O)c1ccccc1C2=O.O=P(O)(O)O.O=P(O)(O)O [DNA2-25-1, 2-[Methylamino-N-(propyl-3′-N,N-diethylaminopropyl)]-9,10-anthraquinone diphosphate]	–	–	–	10,000 nM	10,000 nM	0.1 µM	MIC (Oscillatoria perornata; rapid screening): 0.1 µM
CCCCCNCc1ccc2c(c1)C(=O)c1ccccc1C2=O.O=P(O)(O)O [DNA2-55-1, 2-[Methylamino-N-(pentyl)]-9,10-anthraquinone monophosphate]	–	–	1,000 nM	100,000 nM	100,000 nM	–	LOEC (lowest-observed-effect concentration), Oscillatoria perornata (Oscillatoria perornata; rapid screening): 1,000 nM
CCN(CC)Cc1cccc2c1C(=O)c1ccccc1C2=O [DNA4-39-1, 1-[Methylamino-N,N-(diethyl)]-9,10-anthraquinone monophosphate]	–	–	1,000 nM	10,000 nM	10,000 nM	0.1 µM	–
CCCC(C)NCc1ccc2c(c1)C(=O)c1ccccc1C2=O.O=P(O)(O)O (stereo not drawn) [DNA2-53-1, 2-[Methylamino-N-(1′-methylbutyl)]-9,10-anthraquinone monophosphate]	–	–	–	100,000 nM	100,000 nM	0.1 µM	MIC (Oscillatoria perornata; rapid screening): 0.1 µM
COCCOCCOCCOCCOc1cccc2c1C(=O)c1ccccc1C2=O [DNA3-53-1, 1-[2-[2-[2-(2-Methoxyethoxy)ethoxy]ethoxy]ethoxy]-9,10-anthraquinone]	100 µM (≈ 41.4 µg/mL)	> 100 µM	–	–	–	–	minimal effective concentration (Oscillatoria perornata; [2]): 10 µM; minimal effective concentration ([1]; rapid screening): 100 µM
COCCOCCOCCOCc1ccc2c(c1)C(=O)c1ccccc1C2=O [DNA3-61-1, 2-methylene-[2-[2-(2-methoxyethoxy)ethoxy]ethoxy]-9,10-anthraquinone]	–	–	10,000 nM	>100,000 nM	>100,000 nM	0.1 µM	–
O=C1c2ccccc2C(=O)c2c(OCCOCCOCCO)cccc21 [DNA3-15-1, 1-[2-[2-(2-Hydroxyethoxy)ethoxy]ethoxy]-9,10-anthraquinone]	10 µM (≈ 3.56 µg/mL)	> 100 µM	–	–	–	–	minimal effective concentration (Oscillatoria perornata; [2]): 10 µM; minimal effective concentration ([1]; rapid screening): 0.01 µM
